Publication PMC11477209, “Toxicological Evaluation of Kaempferol and Linearolactone as Treatments for Amoebic Liver Abscess Development in Mesocricetus auratus” (International Journal of Molecular Sciences, 2024)
Converted amounts (≈) assume the structure as drawn.

Legend:
[1] = tested on: E. histolytica trophozoites (virulent HM-1 strain); assay: microbe, parasite or virus in culture; conditions: Entamoeba histolytica, 48 h, read-out: IC50 HM-1, 48 h, flow cytometry
[2] = tested on: E. histolytica trophozoites (amoebic liver abscess); assay: Amoebic liver abscess (ALA) model, antiparasitic protocol; type: in vivo, Mesocricetus auratus
Description: M. auratus was used as an animal model because the hamster is naturally susceptible to infection by E. histolytica and can develop amoebic colitis or extraintestinal complications such as an ALA [71]. In this context, the hamster can be used to search for new alternative therapeutic agents against amoebiasis. The hamsters were acquired from Charles River Laboratories Inc. (Wilmington, MA, USA) in 2017 by Centro de Investigación y de Estudios Avanzados del Instituto Politécnico Nacional ([…]-IPN). […] Male hamsters (sexually mature and homozygous) weighing 95 ± 5 g and ≈10 weeks old were selected for the experiments. They were maintained in aseptic conditions at 25 ± 1 °C, 50 ± 3% humidity, a 12 h photoperiod, and ad libitum access to a standard diet (LabDiet; Richmond, IN, USA) and water (Figure 5A). The hamsters were housed in polycarbonate boxes (five per box), with an American Iron and Steel Institute (AISI) lid and wood shavings as bedding, in a controlled room of the Animal Production and Experimentation Unit (UPEAL) from […]-IPN (Figure 5A). Additionally, the health state of the hamsters and their adaptation to the new laboratory conditions were evaluated for 15 days to decrease their stress and anxiety levels. This study was carried out according to the Official Mexican Regulations (NOM-062-ZOO-1999) and NC3Rs ARRIVE [60, 72]. The protocol was approved by the Institutional Animal Care and Use Committee (Reg. No. 0183-16). Finally, the hamsters were not subjected to any previous experimental procedure or any additional treatment before beginning the experimental procedures (see File S1, NC3Rs ARRIVE Guidelines Checklist). Compounds that are prohibited and/or not recommended for use in animals by the American Veterinary Medical Association (Guidelines for the Euthanasia of Animals) were not used.
These experiments were performed with three independent biological replicates. For each replicate, twenty-five hamsters were randomly distributed (simple type) into five experimental groups (five animals per group). The sample size was determined based on the Organization for Economic Cooperation and Development (OECD) recommendations that establish the minimum number of individuals required for the tests so as not to sacrifice animals unnecessarily. Laparotomy was performed in aseptic conditions by using depilation, iodine solution, as well as sterile field cloths. Subsequently, an intra-hepatic puncture was made to deliver 1.5 × 10^6 virulent E. histolytica trophozoites in 100 μL of 1× PBS into the left hepatic lobe for ALA induction (Figure 5A-3). The injection site was immediately covered by applying a gel foam pad to maintain hemostasis. The abdominal layers were sutured discontinuously by single vertical stitches using Vicryl synthetic absorbable suture with a triangular pointed half circle needle. Irregular edges or folds in the surgical wound were eliminated to avoid tissue devitalization or possible infections. The development of a hepatic ALA was monitored for 4 days (Figure 5A-4).
(Figure 5B). The compounds were administered by the i.p. route because the peritoneal cavity presents rapid fluid absorption into the bloodstream, and initial biotransformation by the gastrointestinal tract is avoided. […] The hamsters were evaluated 24 h post-treatment to detect any signs of discomfort/pain or toxicity. The humane endpoint criteria used in this study were >20% body weight loss overnight, cachexia, recumbence, lethargy, respiratory distress, inability to reach food and water, lack of grooming, and ulceration around the surgical site, among others. Additionally, the weight of hamsters was determined at the beginning and end of the experiment with an electronic bascule (CS200, Ohaus; Parsippany, NJ, USA), and the ALA volume was calculated based on imaging (Figure 5B-1). […]

BEAS-2B cells = assay: MTT cytotoxicity assay; type: cell-based, human; conditions: 24 h
[3] = in vivo
Method: After blood samples were obtained, the hamsters were sacrificed with a lethal dose of sodium pentobarbital, followed by a cervical fracture. They were mounted on a dissecting board for the necropsy. A complete mid-laparotomy was performed to remove the lungs, spleen, heart, liver, and kidneys. An excisional biopsy was performed to recover the ALA lesions for morphometric analysis. The organs and ALA lesions were rinsed with 1× PBS, weighed, and adherent tissue was removed. […] Later, the inclusion protocol was performed to obtain histological sections (3 μm thick) with a rotatory microtome (RM2125-RTS, Leica; Wetzlar, Germany). Tissue slices were stained with hematoxylin-eosin (Merck; Rahway, NJ, USA), mounted on coverslips with Entellan^TM-New (Merck; Rahway, NJ, USA), and observed with optical microscopy (Eclipse 80i, Nikon; Tokio, Japan).

[4] = tested on: E. histolytica trophozoites (virulent HM-1 strain)
[5] = Chinese hamster (CHO-K1) and human (BEAS-2B)
[6] = Paraclinical analysis (serum biochemistry, hematic biometry) in ALA hamsters; type: in vivo, Mesocricetus auratus
Method: Serum was obtained by centrifugation at 3500 rpm and frozen at −70 °C until analysis. Hematic biometry was performed in a hematology autoanalyzer system (BC-2300, Mindray; Shenzhen, China), and biochemical parameters were made on an automatic medical system (Prestige 24i, Tokyo Boeki; Kanagawa, Japan).

CHO-K1 cells = assay: MTT cytotoxicity assay; type: cell-based, Chinese hamster; conditions: 24 h, MTT

## Cc1ncc([N+](=O)[O-])n1CCO [MTZ, metronidazole, reference compound]
ALA hamsters, i.p. 4 days
  Survival rate: 100%
In vivo, ip
  Toxicity signs: None
[1]
  IC50: 0.16 µg/mL (≈ 0.935 µM)
[2]; ALA characteristics
  Edges: Regular and well defined
  Leukocyte infiltrate: −
  Liquid: −
  Morphology: Round
[2]; MRI, i.p. 4 days
  ALA Volume: 528 ± 183.5 * mm^3
[2]; T1
  MRI T1 signal of ALA: Intermediate intensity
[2]; T2
  MRI T2 signal of ALA: hypointense
[2]; i.p. 4 days, KP 5, LL 10, MTZ 10 mg/kg/day
  ALA Weight: 0.33 ± 0.32 g
BEAS-2B cells
  biological activity symbol on IC50 BEAS-2B: -
BEAS-2B cells; Homo sapiens, BEAS-2B
  IC50: 400 µg/mL (≈ 2340 µM)
[3]
  Heart largest diameter: 1.08 ± 0.04 cm
  Heart weight: 0.38 ± 0.1 g
  Kidneys largest diameter: 1.3 ± 0.08 cm
  Kidneys weight: 0.52 ± 0.0 g
  Liver largest diameter: 4 ± 0.15 cm
  Liver weight: 5.76 ± 1.4 g
  Lungs largest diameter: 2.5 ± 0.2 cm
  Lungs weight: 0.68 ± 0.05 g
  Spleen largest diameter: 3.3 ± 0.3 cm
  Spleen weight: 0.2 ± 0.05 g
[4]
  apoptotic trophozoites: 2%
  decrease of size and granularity of the cell population: 52%
  necrotic trophozoites: 62.2%
[4]; 48 h
  biological activity symbol on IC50 HM-1: ++
[5]
  LD50 (Theoretical): 1026 mg/kg
[6]; blood, ALA hamsters, i.p. 4 days
  MPV: 8 ± 0.1 fL
[6]; drug toxicity ratio
  TB/AL ratio: 0.38 ± 0.16
[6]; hematic ratio
  neutrophil/lymphocyte ratio: 1.15 ± 0.7
[6]; in vivo
  Band neutrophils: 0%
  Basophils: 0%
  Eosinophils: 0%
  Immature forms: 0%
  Lymphocytes: 50 ± 13%
  Monocytes: 0%
  Segmented neutrophils: 51 ± 13%
[6]; in vivo, ip
  ALT (GPT): 135 ± 23 U/L
  AST (GOT): 81 ± 24 U/L
  Albumin: 1.9 ± 0.3 g/dL
  Alkaline phosphatase: 230 ± 11 U/L
  Cholesterol: 116 ± 9.1 mg/dL
  Creatinine: 1.01 ± 0.2 mg/dL
  Direct bilirubin: 0.5 ± 0.1 mg/dL
  Erythrocytes: 3.7 ± 0.2 x10 6/mm3
  GGT: 5.5 ± 2.3 U/L
  Glucose: 161 ± 21 mg/dL
  Hematocrit: 35 ± 2.6%
  Hemoglobin: 14. 7 ± 1.2 g/dL
  Indirect bilirubin: 0.20 ± 0.1 mg/dL
  Leukocytes: 7.7 ± 2.6 x100/mm3
  MCH: 40 ± 1.6 pg
  MCHC: 43 ± 1.4 g/dL
  MCV: 94 ± 2.2 fL
  PCT: 0.4 ± 0.1%
  PDW: 11 ± 0.4 fL
  Platelets: 536 ± 148 x106/μL
  RDW-CV: 25.8 ± 3.3 fL
  RDW-SD: 111 ± 12 fL
  Total bilirubin: 0.7 ± 0.3 mg/dL
  Total protein: 5.3 ± 0.9 g/dL
  Triglycerides: 280 ± 75 mg/dL
  Urea: 41.2 ± 1.4 mg/dL
[6]; kidney damage ratio
  BUN/CR ratio: 19.6 ± 3.8
  urea/CR ratio: 42 ± 8.15
[6]; liver injury ratio
  AST/ALT ratio (De Ritis ratio): < 1
CHO-K1 cells
  biological activity symbol on IC50 CHO-K1: -
CHO-K1 cells; Cricetulus griseus, CHO-K1, read-out: IC50 CHO-K1
  IC50: 500 µg/mL (≈ 2920 µM)
